Data taken from US20040102501A1, “Stable, low free formaldehyde, synergistic antimicrobial compositions of aldehyde donors and dehydroacetic acid” (priority 2002, published 2004).

Tests used:
[1] = system: Mixed bacteria: equal mixture of Staphylococcus aureus (ATCC No. 6538), Pseudomonas aeruginosa (ATCC No. 9027), and Escherichia coli (ATCC No. 8739); test: Preservative challenge test against mixed bacteria in anionic protein shampoo; assay type: cell-based
Description: Mixed bacteria challenge tests were performed by adding approximately 1-5×10^6 organisms per gram of formulation, the organisms comprising an equally divided mixture of Staphylococcus aureus (ATCC No. 6538), Pseudomonas aeruginosa (ATCC No. 9027), and Escherichia coli (ATCC No. 8739) incubated at 36° C. on nutrient agar […] 24 hours prior to testing. The test samples were incubated at 23° C. (room temperature) for the number of days indicated, after which an aliquot of the sample was taken and diluted stepwise to a 10^6 fold reduction in concentration. The diluted samples were plated out on tryptic soy agar and incubated for 48 hours at 36° C. After incubation, readings of the total number of colony forming units per gram (cfu/g) were made on the samples. Table 3 illustrates the levels at which the individual components Glydant®2000 and DHA are effective and ineffective against bacteria.

[2] = system: Mixed bacteria: equal mixture of Staphylococcus aureus (ATCC No. 6538), Pseudomonas aeruginosa (ATCC No. 9027), and Escherichia coli (ATCC No. 8739); test: Synergy at Day 14 (Kull method, QA/Qa+QB/Qb) from mixed bacteria challenge test; assay type: cell-based; conditions: DHA alone
Description: A synergistic effect is a response to a combination of two or more components that produce an effect greater than the sum of their individual effects. […] E. Kull et al., “Mixtures of Quaternary Ammonium Compounds and Long-chain Fatty Acids as Antifungal Agents”, Applied Microbiology, 9:538-541 (1961). The synergism value is determined by the formula: […]
where QA is the quantity of Compound A in mixture, producing an endpoint; Qa is the quantity of Compound a acting alone, producing an endpoint; QB is the concentration of Compound B in the mixture, producing an endpoint. Qb is the concentration of Compound b acting alone, producing an endpoint.
When the value of (QA/Qa+QB/Qb) is less than one, the mixture is synergistic. Values for (QA/Qa+QB/Qb) of 1 and greater than 1, represent an additive effect and an antagonistic effect, respectively. According to this method of measuring synergism, the quantity of each component in the various mixtures is compared with the quantity of pure component that is required to reach the same endpoint or to produce the same microbiological effect as the mixture. […]

[3] = 0.150% preservative as supplied

## CC(=O)C1C(=O)C=C(C)OC1=O (stereo not shown) [DHA, dehydroacetic acid]
[1]; [3]
  Day 0 cfu/g.: 3.0 × 10^6 cfu/g
  Day 7 cfu/g.: 8.0 × 10^3 cfu/g
  Day 14 cfu/g.: 1.0 × 10^6 cfu/g
[1]; 0.20% preservative as supplied
  Day 0 cfu/g.: 3.0 × 10^6 cfu/g
  Day 7 cfu/g.: 1.0 × 10^3 cfu/g
  Day 14 cfu/g.: <10 cfu/g
[2]
  Qb (concentration of Compound b acting alone, producing an endpoint): 0.2%
